Reference: PubChem BioAssay AID250 (DTP/NCI, 2004)
“And” between values parts separate entries of the source, which are not always exact repeats. Equal values may be shown once. Inconclusive results and toxic doses are left out.

Test system: BDF1 mice, L1210 leukemia sc, survival T/C
Assay: NCI In Vivo Anticancer Drug Screen. Data for tumor model L1210 Leukemia (subcutaneous) in B6D2F1 (BDF1) mice
Conditions: higher = longer survival
Procedure, shortened: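 Tumors were transplanted into mice, the animals were treated with compound, survival or tumor size was then measured, and treated values were divided by vehicle-control values.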

S=c1nc[nH]c2nc[nH]c12
T/C (endpoint: mean survival time, dose: 60.0 mg/kg/injection, schedule: Q01DX001 (ip), vehicle: saline): 106 % of control
T/C (endpoint: mean survival time, dose: 90.0 mg/kg/injection, schedule: Q01DX001 (ip), vehicle: saline): 110 % of control
T/C (endpoint: mean survival time, dose: 120.0 mg/kg/injection, schedule: Q01DX001 (ip), vehicle: saline): 110 % of control
T/C (endpoint: mean survival time, dose: 240.0 mg/kg/injection, schedule: Q01DX001 (ip), vehicle: saline): 116 % of control
T/C (endpoint: median survival time, dose: 0.65 mg/kg/injection, schedule: Q02DX Z (sc), vehicle: other): 116 % of control
T/C (endpoint: median survival time, dose: 5.0 mg/kg/injection, schedule: Q01DX009 (sc), vehicle: other): 109 % of control
T/C (endpoint: median survival time, dose: 5.0 mg/kg/injection, schedule: Q## X Z (sc), vehicle: other): 105 % of control
T/C (endpoint: median survival time, dose: 10.0 mg/kg/injection, schedule: Q01DX009 (sc), vehicle: other): 113 % of control
T/C (endpoint: median survival time, dose: 10.0 mg/kg/injection, schedule: Q01DX Z (sc), vehicle: methylcellulose (MC)): 105 % of control
T/C (endpoint: median survival time, dose: 12.5 mg/kg/injection, schedule: Q01DX012 (ip), vehicle: other): 122 % of control
T/C (endpoint: median survival time, dose: 14.0 mg/kg/injection, schedule: Q01DX Z (ip), vehicle: other): 100 % of control
T/C (endpoint: median survival time, dose: 14.0 mg/kg/injection, schedule: Q01DX Z (oral), vehicle: methylcellulose (MC)): 100 % of control and 104 % of control
T/C (endpoint: median survival time, dose: 14.0 mg/kg/injection, schedule: Q01DX Z (sc), vehicle: other): 100 % of control (2×) and 110 % of control
T/C (endpoint: median survival time, dose: 14.0 mg/kg/injection, schedule: Q#A X Z (sc), vehicle: other): 105 % of control and 115 % of control
T/C (endpoint: median survival time, dose: 17.0 mg/kg/injection, schedule: Q01DX Z (oral), vehicle: methylcellulose (MC)): 95 % of control
T/C (endpoint: median survival time, dose: 17.0 mg/kg/injection, schedule: Q01DX Z (sc), vehicle: methylcellulose (MC)): 100 % of control and 110 % of control
T/C (endpoint: median survival time, dose: 20.0 mg/kg/injection, schedule: Q01DX009 (sc), vehicle: other): 124 % of control
T/C (endpoint: median survival time, dose: 23.0 mg/kg/injection, schedule: Q01DX Z (ip), vehicle: other): 100 % of control
T/C (endpoint: median survival time, dose: 23.0 mg/kg/injection, schedule: Q01DX Z (oral), vehicle: methylcellulose (MC)): 100 % of control
T/C (endpoint: median survival time, dose: 23.0 mg/kg/injection, schedule: Q01DX Z (sc), vehicle: methylcellulose (MC)): 109 % of control
T/C (endpoint: median survival time, dose: 23.0 mg/kg/injection, schedule: Q02DX Z (sc), vehicle: other): 94 % of control
T/C (endpoint: median survival time, dose: 23.0 mg/kg/injection, schedule: Q#A X Z (sc), vehicle: other): 105 % of control
T/C (endpoint: median survival time, dose: 28.0 mg/kg/injection, schedule: Q01DX Z (oral), vehicle: methylcellulose (MC)): 100 % of control
T/C (endpoint: median survival time, dose: 28.0 mg/kg/injection, schedule: Q01DX Z (sc), vehicle: methylcellulose (MC)): 109 % of control
T/C (endpoint: median survival time, dose: 28.0 mg/kg/injection, schedule: Q01DX Z (sc), vehicle: other): 110 % of control
T/C (endpoint: median survival time, dose: 38.9 mg/kg/injection, schedule: Q01DX Z (sc), vehicle: methylcellulose (MC)): 150 % of control
T/C (endpoint: median survival time, dose: 38.9 mg/kg/injection, schedule: Q01DX Z (sc), vehicle: other): 100 % of control and 105 % of control
T/C (endpoint: median survival time, dose: 39.0 mg/kg/injection, schedule: Q01DX001 (sc), vehicle: other): 105 % of control
T/C (endpoint: median survival time, dose: 39.0 mg/kg/injection, schedule: Q01DX Z (ip), vehicle: other): 110 % of control
T/C (endpoint: median survival time, dose: 39.0 mg/kg/injection, schedule: Q01DX Z (oral), vehicle: methylcellulose (MC)): 104 % of control
T/C (endpoint: median survival time, dose: 39.0 mg/kg/injection, schedule: Q02DX Z (sc), vehicle: other): 105 % of control
T/C (endpoint: median survival time, dose: 39.0 mg/kg/injection, schedule: Q07DX Z (sc), vehicle: other): 105 % of control
T/C (endpoint: median survival time, dose: 39.0 mg/kg/injection, schedule: Q## X Z (sc), vehicle: other): 100 % of control
T/C (endpoint: median survival time, dose: 39.0 mg/kg/injection, schedule: Q#A X Z (sc), vehicle: other): 110 % of control
T/C (endpoint: median survival time, dose: 47.0 mg/kg/injection, schedule: Q01DX Z (oral), vehicle: methylcellulose (MC)): 104 % of control
T/C (endpoint: median survival time, dose: 47.0 mg/kg/injection, schedule: Q01DX Z (sc), vehicle: other): 110 % of control
T/C (endpoint: median survival time, dose: 50.0 mg/kg/injection, schedule: Q01DX012 (ip), vehicle: other): 155 % of control
T/C (endpoint: median survival time, dose: 60.0 mg/kg/injection, schedule: Q01DX001 (ip), vehicle: saline): 100 % of control
T/C (endpoint: median survival time, dose: 64.8 mg/kg/injection, schedule: Q01DX Z (sc), vehicle: other): 150 % of control
T/C (endpoint: median survival time, dose: 65.0 mg/kg/injection, schedule: Q01DX001 (sc), vehicle: other): 105 % of control and 115 % of control
T/C (endpoint: median survival time, dose: 65.0 mg/kg/injection, schedule: Q01DX Z (oral), vehicle: methylcellulose (MC)): 104 % of control and 115 % of control
T/C (endpoint: median survival time, dose: 65.0 mg/kg/injection, schedule: Q01DX Z (sc), vehicle: methylcellulose (MC)): 154 % of control
T/C (endpoint: median survival time, dose: 65.0 mg/kg/injection, schedule: Q02DX Z (sc), vehicle: other): 105 % of control and 115 % of control
T/C (endpoint: median survival time, dose: 65.0 mg/kg/injection, schedule: Q07DX Z (sc), vehicle: other): 105 % of control and 115 % of control
T/C (endpoint: median survival time, dose: 65.0 mg/kg/injection, schedule: Q## X Z (sc), vehicle: other): 100 % of control
T/C (endpoint: median survival time, dose: 78.0 mg/kg/injection, schedule: Q01DX Z (oral), vehicle: methylcellulose (MC)): 113 % of control
T/C (endpoint: median survival time, dose: 78.0 mg/kg/injection, schedule: Q01DX Z (sc), vehicle: other): 155 % of control
T/C (endpoint: median survival time, dose: 80.0 mg/kg/injection, schedule: Q01DX009 (ip), vehicle: other): 150 % of control
T/C (endpoint: median survival time, dose: 80.0 mg/kg/injection, schedule: Q01DX009 (sc), vehicle: other): 155 % of control
T/C (endpoint: median survival time, dose: 90.0 mg/kg/injection, schedule: Q01DX001 (ip), vehicle: saline): 110 % of control
T/C (endpoint: median survival time, dose: 108.0 mg/kg/injection, schedule: Q01DX001 (sc), vehicle: other): 115 % of control
T/C (endpoint: median survival time, dose: 108.0 mg/kg/injection, schedule: Q01DX Z (ip), vehicle: other): 155 % of control
T/C (endpoint: median survival time, dose: 108.0 mg/kg/injection, schedule: Q01DX Z (oral), vehicle: methylcellulose (MC)): 105 % of control and 118 % of control
T/C (endpoint: median survival time, dose: 108.0 mg/kg/injection, schedule: Q02DX Z (sc), vehicle: other): 152 % of control
T/C (endpoint: median survival time, dose: 108.0 mg/kg/injection, schedule: Q07DX Z (sc), vehicle: other): 115 % of control
T/C (endpoint: median survival time, dose: 108.0 mg/kg/injection, schedule: Q## X Z (sc), vehicle: other): 115 % of control
T/C (endpoint: median survival time, dose: 120.0 mg/kg/injection, schedule: Q01DX001 (ip), vehicle: saline): 110 % of control
T/C (endpoint: median survival time, dose: 130.0 mg/kg/injection, schedule: Q01DX Z (sc), vehicle: methylcellulose (MC)): 109 % of control
T/C (endpoint: median survival time, dose: 130.0 mg/kg/injection, schedule: Q01DX Z (sc), vehicle: other): 150 % of control
T/C (endpoint: median survival time, dose: 160.0 mg/kg/injection, schedule: Q01DX009 (sc), vehicle: other): 102 % of control
T/C (endpoint: median survival time, dose: 180.0 mg/kg/injection, schedule: Q01DX001 (sc), vehicle: other): 121 % of control
T/C (endpoint: median survival time, dose: 180.0 mg/kg/injection, schedule: Q01DX Z (oral), vehicle: methylcellulose (MC)): 150 % of control
T/C (endpoint: median survival time, dose: 180.0 mg/kg/injection, schedule: Q07DX Z (sc), vehicle: other): 121 % of control
T/C (endpoint: median survival time, dose: 200.0 mg/kg/injection, schedule: Q01DX012 (ip), vehicle: other): 100 % of control
T/C (endpoint: median survival time, dose: 216.0 mg/kg/injection, schedule: Q01DX Z (oral), vehicle: methylcellulose (MC)): 109 % of control
T/C (endpoint: median survival time, dose: 216.0 mg/kg/injection, schedule: Q01DX Z (sc), vehicle: methylcellulose (MC)): 109 % of control
T/C (endpoint: median survival time, dose: 216.0 mg/kg/injection, schedule: Q01DX Z (sc), vehicle: other): 150 % of control
T/C (endpoint: median survival time, dose: 240.0 mg/kg/injection, schedule: Q01DX001 (ip), vehicle: saline): 110 % of control
T/C (endpoint: median survival time, dose: 300.0 mg/kg/injection, schedule: Q01DX Z (oral), vehicle: methylcellulose (MC)): 150 % of control and 154 % of control
T/C (endpoint: median survival time, dose: 300.0 mg/kg/injection, schedule: Q01DX Z (sc), vehicle: methylcellulose (MC)): 120 % of control
T/C (endpoint: median survival time, dose: 300.0 mg/kg/injection, schedule: Q07DX Z (sc), vehicle: other): 121 % of control
T/C (endpoint: median survival time, dose: 300.0 mg/kg/injection, schedule: Q## X Z (sc), vehicle: other): 157 % of control
T/C (endpoint: median survival time, dose: 360.0 mg/kg/injection, schedule: Q01DX Z (oral), vehicle: methylcellulose (MC)): 122 % of control
T/C (endpoint: median survival time, dose: 500.0 mg/kg/injection, schedule: Q01DX Z (oral), vehicle: other): 120 % of control
